The source of these data is patent US20230104357A1, “Combination of Retromer Pharmacological Chaperones and Exogenous Retromer for the Treatment of Alzheimer's Disease and Other Neurodegenerative Diseases and Disorders” (The Trustees of Columbia University in the City of New York, priority 2020, published 2023).

The structures appear in SMILES notation.

Test [1] concerns the target T1, VPS35 (Homo sapiens, UniProt Q96QK1).
T1 construct: expressed in transfected cells; host or cells: HECT293T cells
Nature of the test: Western blot of VPS35 protein levels in HECT293T cells after VPS35 plasmid transfection and/or R55. The note with it: 5 μM of R55, Western blot 72 hours after transfection, lanes 7 and 8. The format is cell-based. The protocol: Human HECT293 cells, considered a model for human neurons, were cultured. VPS35 was delivered via plasmid to HECT293T cells under control of the constitutive EF1a promoter. Pharmacological chaperone R55 was administered to the cells as an aqueous solution at concentrations of 5 uM and 50 uM at the time of transfection. Protein levels were assessed by Western blot 72 hours after transfection.
Lipofectamine transfection protocols were used with some modifications. Briefly lipofectamine LTX was used to co-transfect Vps35 and Vps26 (Vps26a or Vps26b) plasmids into the cells in a 6 well format. 100k cells were plated in each well already containing medium with DNA-lipofectamine complexes. Empty chassis and GFP as were used as control plasmids. Amount of DNA copies introduced per well was 2.81 E+11. Cells were harvested 48 hours after transfection using RIPA buffer as described previously (Qureshi et al. 2019).
Cells were lysed in RIPA and protein were isolated as described previously (Qureshi et al. 2019; Kirby et al. 2015). Lysates from the samples were run on NuPAGE® Bis-Tris 4-12% gels, transferred onto nitrocellulose membranes using iblot and were probed with antibodies.
A primary antibody targeting VPS35 was used (ab57632, Abcam, 1:1k). Western blots were scanned using the Odyssey imaging system as described previously (Eaton et al. 2013). […]

In test [2] the target is T2, VPS35 (Mus musculus, UniProt Q9EQH3).
T2 construct: cultured primary neurons; endogenous in cells; host or cells: cultured primary neurons
The settings on record: cultured primary neurons; Mecozzi et al. 2014; cited from earlier work.

Test [3] deals with VPS26. The note with it: cultured primary neurons; Mecozzi et al. 2014; cited from earlier work.
The target of test [4] is purified, reconstituted heterotrimeric complex (Homo sapiens, UniProt Q96QK1+Q9UBQ0). The settings on record: various concentrations; Mecozzi et al. 2014; cited from earlier work.

On to `[H]/N=C(\N)SCc1ccc(CS/C(N)=N/[H])s1` [R55], for which the “increase on endogenous VPS35 protein levels” value in test [1] was “about 50%”. Moreover, the VPS35 protein levels entry in test [2] was “increased”. In test [3], the VPS26 protein levels result was “increased”. In addition, the “thermal stability (denaturation temperature of the complex)” value in test [4] is “improved thermal stability significantly”.
